Reference: publication PMC1458514 (Nucleic Acids Research, 2006)

Assays:
[1] = target: nucleoside diphosphate kinase (NDK A) (Homo sapiens, UniProt P15531); experiment: pAp-agarose affinity chromatography of HeLa extract, LC-MS/MS; format: cell-based
[2] = target: T1, small fragment nuclease (Sfn) (Homo sapiens, UniProt Q9Y3B8); experiment: Cy5-RNA 5mer degradation assay; format: biochemical
T1 sequence (Q9Y3B8 26-237): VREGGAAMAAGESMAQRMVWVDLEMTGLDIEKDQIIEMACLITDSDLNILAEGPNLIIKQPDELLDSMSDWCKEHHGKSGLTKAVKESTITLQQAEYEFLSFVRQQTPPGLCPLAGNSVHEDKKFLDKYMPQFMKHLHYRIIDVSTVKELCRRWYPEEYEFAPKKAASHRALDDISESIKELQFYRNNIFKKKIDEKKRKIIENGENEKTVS

[3] = target: T2, Oligoribonuclease (Orn) (Escherichia coli, UniProt P0A784); experiment: Cy5-RNA 5mer degradation assay; format: biochemical
T2 sequence (P0A784 2-181): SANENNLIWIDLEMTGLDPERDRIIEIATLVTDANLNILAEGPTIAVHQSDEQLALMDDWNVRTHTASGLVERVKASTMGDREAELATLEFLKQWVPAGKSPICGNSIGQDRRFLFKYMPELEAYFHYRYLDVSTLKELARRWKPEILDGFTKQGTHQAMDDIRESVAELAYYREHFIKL

nucleoside diphosphate kinase (NDK A), sequence (P15531 2-152): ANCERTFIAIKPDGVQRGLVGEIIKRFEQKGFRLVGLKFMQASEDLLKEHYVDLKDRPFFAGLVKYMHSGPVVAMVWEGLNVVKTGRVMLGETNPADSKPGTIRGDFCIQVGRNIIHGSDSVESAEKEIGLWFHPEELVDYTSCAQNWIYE

Nc1ncnc2c1ncn2[C@@H]1O[C@H](COP(=O)(O)O)[C@@H](OP(=O)(O)O)[C@H]1O [pAp]
pAp-agarose affinity chromatography of HeLa extract, LC-MS/MS [1]: The second human enzyme we found to bind to pAp is NDK. | Cy5-RNA 5mer degradation assay (gel) with purified Sfn; also pAp-agarose capture [2]: ~ 20 µM | Cy5-RNA 5mer degradation assay (gel) with purified Orn; also pAp-agarose affinit [3]: ~ 20 µM
